These results are taken from patent publication US11179396B2, “Heterocyclic compounds as antibacterials” (Janssen Sciences Ireland Unlimited Company, priority 2016, dated 2021).

Values after ≈ are worked out from the molar mass of the structure shown.

Test [1] concerns Mycobacterium tuberculosis strain EH 4.0 (361.269). Briefly: Test 4: resazurin growth inhibition assay, M. tuberculosis strain EH 4.0. The class given is cell-based. Particulars: read-out: pIC50 (converted). The text has this: Test 4 (See Also Test 1 Above; in this Test a Different Strain of Mycobacterium tuberculosis Strain is Employed)
Appropriate solutions of experimental and reference compounds were made in 96 well plates with 7H9 medium. Samples of Mycobacterium tuberculosis strain EH 4.0 (361.269) were taken from cultures in stationary growth phase. These were first diluted to obtain an optical density of 0.3 at 600 nm wavelength and then diluted 1/100, resulting in an inoculum of approximately 5×10 exp5 colony forming units per well. Plates were incubated at 37° C. in plastic bags to prevent evaporation. After 7 days, resazurin was added to all wells. Two days later, fluorescence was measured on a Gemini EM Microplate Reader with 543 nm excitation and 590 nm emission wavelengths and MIC50 and/or pIC50 values (or the like, e.g. IC50, IC90, pIC90, etc) were (or may be) calculated. pIC50 values may be recorded below in μg/mL.
Background: The colour change of resazurin is a common sign of viable cells or microbes.

Test [2] concerns M. tuberculosis H37Rv. The note with it: strain M. tuberculosis H37Rv, inside macrophages; cited from earlier work.
Test [3] relates to M. tuberculosis. The note with it: cited from earlier work.

In the case of `CCc1nc2sc(C)cn2c1C(=O)NCc1ccc(N2CC3C(C2)C3C(F)(F)F)cc1` (stereo not drawn) [Cpd 7], the IC50 in test [1] was 0.0316 µM.

With `CCc1nc2n(c1C(=O)NCc1ccc(N3CC4CC(F)CC4C3)cc1)CCCC2` (stereo not drawn) [Cpd 3], the IC50 in test [1] is 0.1 µM.

For the compound `Cc1nn2ccccc2c1C(=O)NCc1ccc(N2C[C@H]3C[C@H](F)C[C@H]3C2)cc1` [Cpd 8], the IC50 in test [1] is 1.12 µM.

Regarding `CCc1nc2ccc(Cl)cn2c1C(=O)NCc1ccc(N2CC3CC(F)CC3C2)cc1` (stereo not drawn) [Cpd 1], in test [1], the IC50 is 0.0398 µM.

Consider `CCc1nc2ccc(Cl)cn2c1C(=O)NCc1ccc(N2CCC(c3ccc(OC(F)(F)F)cc3)CC2)cc1` [Compound Q203], for which, in test [2], the MIC50 is recorded as 0.28 nM (≈ 0.156 ng/mL). For the same compound, the “activity against both replicating and non-replicating bacteria” value in test [3] is “highly active”.

Consider `CCc1nc2ncc(Cl)cn2c1C(=O)NCc1ccc(N2C[C@@H]3CC(F)(F)C[C@@H]3C2)cc1` [Cpd 9], for which, in test [1], the IC50 was 0.0158 µM.

For the compound `CCc1nc2sc(C)cn2c1C(=O)NCc1ccc(N2CC3CC(F)CC3C2)cc1` (stereo not drawn) [Cpd 2], the IC50 in test [1] was 0.0501 µM.

Take `CCc1nc2ncc(Cl)cn2c1C(=O)NCc1ccc(N2CC3CC(F)CC3C2)cc1` (stereo not drawn) [Cpd 4]: the IC50 in test [1] was 0.112 µM.
